Data as given in US7772209B2, “Antifolate combination therapies” (Eli Lilly and Company, priority 2000, dated 2010).

Legend:
[1] = tested on: human MX-1 breast carcinoma; experiment: Tumor growth delay in human MX-1 breast carcinoma xenograft in female nude mice; type: in vivo
Experimental: To assess the effect of a methylmalonic acid lowering agent, alone or in combination with folic acid on the antitumor efficacy of an antifolate in a human tumor xenograft model, female nude mice bearing human MX-1 breast carcinoma were treated with ALIMTA alone or along with super-physiologic doses of folic acid or vitamin B12 (cobalamin).
(§1) The animals were maintained on sterilized standard lab chow ad libitum and sterilized water ad libitum. The human MX-1 tumor cells (5×10^6) obtained from donor tumors were implanted subcutaneously in a thigh of female nude mice 8- to 10-weeks old. Beginning on day 7 post tumor cell implantation, the animals were treated with ALIMTA (100 mg/kg or 150 mg/kg) once daily on days 7 through 11 and 14 through 18 by intraperitoneal injection alone or along with folic acid (6 mg/kg or 60 mg/kg) and/or vitamin B12 (165 mg/kg) by intraperitoneal injection on the same schedule.
(§2) Tumor response was monitored by tumor volume measurements twice weekly over the course of the experiment. Toxicity was monitored by body weight measurements made at the same time as the tumor volume measurements. Tumor growth delay was the difference in days for the treated and the controls tumors to reach 1000 mm^3.

[2] = Body weight as general measure of toxicity in MX-1 tumor-bearing nude mice
Experimental: as §1, §2
Body weight was used as a general measure of toxicity for each of the treatment regimens. The body weight loss pattern reflected the treatment regimens with weight decrease during the treatment times of days 7 through 11 and 14 through 18 with some weight recovery during the intervening two days. The weight loss due to ALITMA was dose dependent but overall minor (3%).

[3] = grade 3/4 toxic events, N = 246, not supplemented
Experimental: One to two weeks prior to administration of ALIMTA urine is collected and blood is drawn from a human subject; and vitamin metabolite levels, methylmalonic acid and homocysteine, are determined. Homocysteine levels are determined in blood by a fluorescent polarization immunoassay kit manufactured by Abbot Laboratories. Methylmalonic acid levels are determined by urine levels using a 24 hour urine collection kit available from Biolab Medical Unit (a United Kingdom company). Additionally urine and blood may be collected one week prior to administration of ALIMTA (after at least 5 days of folic acid supplementation and at least 1 week vitamin B12 supplementation), and up to 4 days prior to every cycle.
For purposes of this study, patients should take oral folic acid daily beginning approximately 1 to 3 weeks before treatment with ALIMTA plus cisplatin or cisplatin alone and continuing daily until discontinuation from study therapy.
Vitamin B12 will be obtained and administered as a 1000 μg intramuscular injection. A vitamin B12 injection must be administered approximately 1 to 3 weeks before treatment with ALIMTA and should be repeated approximately every 9 weeks until the patient discontinues from study therapy.
Folic acid supplementation, 350-600 μg or equivalent should be taken orally daily beginning approximately 1 to 3 weeks prior to the first dose of MTA plus cisplatin and continue daily until the patient discontinues from study therapy. A vitamin B12 injection, 1000 μg, must be given intramuscularly approximately 1 to 3 weeks prior to the first dose of ALIMTA and should be repeated approximately every 9 weeks until the patient discontinues from study therapy.
The data to be compared are: • 1) Patient numbers and baseline demographic data for those supplemented from baseline. • 2) Homocysteine and methylmalonic acid levels, levels at baseline, prior to first dose, prior to second dose, and prior to each therapy cycle depending of the type of cancer under study. • 3) Grade 3 and 4 hematologic toxicity in these fully supplemented patients. • 4) Grade 3 and 4 nonhematologic toxicity in these fully supplemented patients.
Cyanocobalamin is used as the methylmalonic acid lowering agent in these studies.

[4] = Clinical response to chemotherapy in chemonaive patients; type: in vivo, human; conditions: responders out of group size
Excerpt: Additionally, sixty-two chemonaive patients requiring chemotherapeutic treatment were divided into two groups.

Nc1nc2ncc(CNc3ccc(C(=O)N[C@@H](CCC(=O)O)C(=O)O)cc3)nc2c(=O)[nH]1 [Folic acid, folic acid]
Tumor growth delay ([1]; folic acid 6 mg/kg ip alone, same schedule): 7 days | Tumor growth delay ([1]; folic acid 60 mg/kg ip alone, same schedule): 12 days

Nc1nc2[nH]cc(CCc3ccc(C(=O)N[C@@H](CCC(=O)O)C(=O)O)cc3)c2c(=O)[nH]1 [ALIMTA, pemetrexed disodium]
Tumor growth delay ([1]; ALIMTA 100 mg/kg ip once daily days 7-11 and 14-18, alone, time to reach 1000 mm^3 vs controls): 17 days | Tumor growth delay ([1]; ALIMTA 150 mg/kg ip once daily days 7-11 and 14-18, alone): 21 days | Body weight loss ([2]; mouse, in vivo): 3% | Percent of occurrences prior to B12/folic acid treatment: Diarrhea [3]: 6% | Percent of occurrences prior to B12/folic acid treatment: Hematologic Toxicity/Non-Hematologic Toxicity [3]: 37% | Percent of occurrences prior to B12/folic acid treatment: Mucositis [3]: 5% | Percent of occurrences prior to B12/folic acid treatment: Neutropenia [3]: 32% | Percent of occurrences prior to B12/folic acid treatment: Neutropenia and Diarrhea [3]: 3% | Percent of occurrences prior to B12/folic acid treatment: Neutropenia and Infection [3]: 2% | Percent of occurrences prior to B12/folic acid treatment: Neutropenia and Mucositis [3]: 3% | Patients who responded to the chemotherapy [4]: 1 out of 17

vitamin B12
Tumor growth delay ([1]; vitamin B12 165 mg/kg ip alone, same schedule): 12 days | Body weight change ([2]; vitamin B12 administration): did not prevent weight gain
